The numbers were not newly measured in PubChem BioAssay AID1259409 (Chemical Carcinogenesis Research Information System (CCRIS), 2018), which cites them from elsewhere.

This data set deals with rodent chemically induced tumor inhibition, incidence and multiplicity. In words: CCRIS tumor inhibitor studies. Conditions: Carcinogen: 7,12-DIMETHYLBENZ[A]ANTHRACENE, 57-97-6.

As for `CC1=C(/C=C/C(C)=C/C=C/C(C)=C/C(=O)O)C(C)(C)CCC1`, the “tumour outcome (control, treated, inhibition, significance)” value was 90%, 83%, 8%, not calculated (Dose [Inhibitor]: 0, 2 NMOL IN 200 µL ACETONE APPLIED 30 MIN PRIOR TO EACH PROMOTER DOSE 2/WK FOR 25 WK BEGINNING 1 WK POST CARCINOGEN DOS, Route [Inhibitor]: DERMAL, Species: MOUSE, Strain/Sex: CD-1/FEMALE, Target Tissue: Type of Lesion: SKIN: PAPILLOMA, Dose [Carcinogen]: 200 NMOL IN 200 µL ACETONE ONCE, Promoter: 12-O-TETRADECANOYLPHORBOL-13-ACETATE, 16561-29-8); 100%, 100%, 0%, not significant (Dose [Inhibitor]: 0, 2 NMOL IN 200 µL ACETONE APPLIED 30 MIN PRIOR TO EACH PROMOTER DOSE 2/WK FOR 25 WK BEGINNING 1 WK POST CARCINOGEN DOS, Route [Inhibitor]: DERMAL, Species: MOUSE, Strain/Sex: CD-1/FEMALE, Target Tissue: Type of Lesion: SKIN: PAPILLOMA, Dose [Carcinogen]: 200 NMOL IN 200 µL ACETONE ONCE, Promoter: MIREX, 2385-85-5); 99%, 68%, 31%, p<0.01 (Dose [Inhibitor]: 0, 3 NMOL IN 0.1 ML ACETONE 2/WK APPLIED 40 MIN PRIOR TO EACH PROMOTER DOSE FOR 20 WK (STUDY DURATION: 21 WK), Route [Inhibitor]: DERMAL, Species: MOUSE, Strain/Sex: ICR/FEMALE, Target Tissue: Type of Lesion: SKIN: PAPILLOMA, Dose [Carcinogen]: 100 UG IN 0.1 ML ACETONE ONCE, Promoter: 12-0-TETRADECANOYLPHORBOL-13-ACETATE, 16561-29-8); 90%, 76%, 16%, not calculated (Dose [Inhibitor]: 0, 5 NMOL IN 200 µL ACETONE APPLIED 30 MIN PRIOR TO EACH PROMOTER DOSE 2/WK FOR 25 WK BEGINNING 1 WK POST CARCINOGEN DOS, Route [Inhibitor]: DERMAL, Species: MOUSE, Strain/Sex: CD-1/FEMALE, Target Tissue: Type of Lesion: SKIN: PAPILLOMA, Dose [Carcinogen]: 200 NMOL IN 200 µL ACETONE ONCE, Promoter: 12-O-TETRADECANOYLPHORBOL-13-ACETATE, 16561-29-8); 100%, 100%, 0%, not significant (Dose [Inhibitor]: 0, 5 NMOL IN 200 µL ACETONE APPLIED 30 MIN PRIOR TO EACH PROMOTER DOSE 2/WK FOR 25 WK BEGINNING 1 WK POST CARCINOGEN DOS, Route [Inhibitor]: DERMAL, Species: MOUSE, Strain/Sex: CD-1/FEMALE, Target Tissue: Type of Lesion: SKIN: PAPILLOMA, Dose [Carcinogen]: 200 NMOL IN 200 µL ACETONE ONCE, Promoter: MIREX, 2385-85-5); 50%, 10%, 80%, p<0.0001 (Dose [Inhibitor]: 0, 10 UG IN 0.2 ML ACETONE 1/WK FOR 5 WK APPLIED 60 MIN PRIOR TO EACH PROMOTER DOSE BEGINNING 1 WK POST CARCINOGEN DOSE, Route [Inhibitor]: DERMAL, Species: MOUSE, Strain/Sex: SENCAR/FEMALE, Target Tissue: Type of Lesion: SKIN: PAPILLOMA, Dose [Carcinogen]: 20 UG IN 0.2 ML ACETONE ONCE, Promoter: 12-O-TETRADECANOYLPHORBOL-13-ACETATE, 16561-29-8). Besides, the “tumour outcome (control, treated, inhibition, significance)” value (Dose [Inhibitor]: 0, 10 UG IN 0.2 ML ACETONE 1/WK FOR 20 WK APPLIED 60 MIN PRIOR TO EACH PROMOTER DOSE BEGINNING 1 WK POST CARCINOGEN DOSE, Route [Inhibitor]: DERMAL, Species: MOUSE, Strain/Sex: SENCAR/FEMALE, Target Tissue: Type of Lesion: SKIN: PAPILLOMA, Dose [Carcinogen]: 20 UG IN 0.2 ML ACETONE ONCE, Promoter: 12-O-TETRADECANOYLPHORBOL-13-ACETATE, 16561-29-8) is given as 95%, 55%, 42%, p<0.05; the “tumour outcome (control, treated, inhibition, significance)” value (Dose [Inhibitor]: 0, 10 UG IN 0.2 ML ACETONE 2/WK FOR 19 WK BEGINNING 15 WK POST PROMOTION TREATMENT (STUDY DURATION: 49 WK), Route [Inhibitor]: DERMAL, Species: MOUSE, Strain/Sex: SENCAR/FEMALE, Target Tissue: Type of Lesion: SKIN: CARCINOMA, Dose [Carcinogen]: 20 UG IN 0.2 ML ACETONE ONCE, Promoter: 12-O-TETRADECANOYLPHORBOL-13-ACETATE, 16561-29-8) was 99%, 54%, 45%, p<0.01; the “tumour outcome (control, treated, inhibition, significance)” value (Dose [Inhibitor]: 0, 10 UG IN 0.2 ML ACETONE 2/WK FOR 19 WK BEGINNING POST PROMOTION TREATMENT (STUDY DURATION: 49 WK), Route [Inhibitor]: DERMAL, Species: MOUSE, Strain/Sex: SENCAR/FEMALE, Target Tissue: Type of Lesion: SKIN: CARCINOMA, Dose [Carcinogen]: 20 UG IN 0.2 ML ACETONE ONCE, Promoter: 12-O-TETRADECANOYLPHORBOL-13-ACETATE, 16561-29-8) is on record as 88%, 52%, 41%, p<0.01; the “tumour outcome (control, treated, inhibition, significance)” value (Dose [Inhibitor]: 0, 10 UG IN 0.2 ML ACETONE 2/WK FOR 19 WK BEGINNING POST PROMOTION TREATMENT (STUDY DURATION: 49 WK), Route [Inhibitor]: DERMAL, Species: MOUSE, Strain/Sex: SENCAR/FEMALE, Target Tissue: Type of Lesion: SKIN: CARCINOMA, Dose [Carcinogen]: 20 UG IN 0.2 ML ACETONE ONCE, Promoter: MEZEREIN, 34807-41-5) is on record as 100%, 65%, 35%, p<0.01; the “tumour outcome (control, treated, inhibition, significance)” value (Dose [Inhibitor]: 0, 10 UG IN 0.2 ML ACETONE 2/WK FOR 20 WK APPLIED 60 MIN PRIOR TO EACH PROMOTER DOSE BEGINNING 1 WK POST CARCINOGEN DOSE, Route [Inhibitor]: DERMAL, Species: MOUSE, Strain/Sex: SENCAR/FEMALE, Target Tissue: Type of Lesion: SKIN: PAPILLOMA, Dose [Carcinogen]: 20 UG IN 0.2 ML ACETONE ONCE, Promoter: MEZEREIN, 34807-41-5) is 86%, 56%, 35%, p<0.05; the “tumour outcome (control, treated, inhibition, significance)” value (Dose [Inhibitor]: 0, 30 UG/G OF DIET FOR DURATION OF STUDY (STUDY DURATION: 35 WK), Route [Inhibitor]: ORAL, Species: MOUSE, Strain/Sex: SENCAR/FEMALE, Target Tissue: Type of Lesion: SKIN: PAPILLOMA, Dose [Carcinogen]: 25.5 UG IN 0.2 ML ACETONE 1/WK FOR 20 WK, Promoter: NONE USED) was 100%, 90%, 10%, not significant (at 20 wk). For the same compound, the “tumour outcome (control, treated, inhibition, significance)” value (Dose [Inhibitor]: 0, 30 UG/G OF DIET FOR DURATION OF STUDY (STUDY DURATION: 35 WK), Route [Inhibitor]: ORAL, Species: RAT, Strain/Sex: SENCAR/FEMALE, Target Tissue: Type of Lesion: SKIN: CARCINOMA, Dose [Carcinogen]: 25.5 UG IN 0.2 ML ACETONE 1/WK FOR 20 WK, Promoter: NONE USED) is recorded as 24%, 19%, 21%, not significant; the “tumour outcome (control, treated, inhibition, significance)” value (Dose [Inhibitor]: 0, 30 UG/G OF DIET FOR DURATION OF STUDY (STUDY DURATION: 40 WK), Route [Inhibitor]: ORAL, Species: MOUSE, Strain/Sex: SENCAR/FEMALE, Target Tissue: Type of Lesion: SKIN: CARCINOMA, Dose [Carcinogen]: 20 UG IN 0.2 ML OF ACETONE ONCE, Promoter: 12-O-TETRADECANOYLPHORBOL-13-ACETATE, 16561-29-8) is given as 30%, 11%, 63%, p=0.027; the “tumour outcome (control, treated, inhibition, significance)” value (Dose [Inhibitor]: 0, 30 UG/G OF DIET FOR DURATION OF STUDY (STUDY DURATION: 40 WK), Route [Inhibitor]: ORAL, Species: MOUSE, Strain/Sex: SENCAR/FEMALE, Target Tissue: Type of Lesion: SKIN: CARCINOMA, Dose [Carcinogen]: 20 UG IN 0.2 ML OF ACETONE ONCE, Promoter: MEZEREIN, 34807-41-5) is 31%, 5%, 84%, p=0.002; the “tumour outcome (control, treated, inhibition, significance)” value (Dose [Inhibitor]: 1.7 NMOL IN 0.2 ML ACETONE 1 HR PRIOR TO EACH PROMOTER DOSE FOR 12 WK (STUDY DURATION: 14 WK), Route [Inhibitor]: DERMAL, Species: MOUSE, Strain/Sex: SENCAR/FEMALE, Target Tissue: Type of Lesion: SKIN: PAPILLOMA, Dose [Carcinogen]: 200 NMOL IN 0.2 ML ACETONE ONCE, Promoter: 12-O-TETRADECANOYLPHORBOL-13-ACETATE, 16561-29-8) is recorded as 100%, 100%, 0%, not calculated; the “tumour outcome (control, treated, inhibition, significance)” value (Dose [Inhibitor]: 1.7 NMOL IN 0.2 ML ACETONE 1 HR PRIOR TO EACH PROMOTER DOSE FOR 20 WK (STUDY DURATION: 22 WK), Route [Inhibitor]: DERMAL, Species: MOUSE, Strain/Sex: CD-1/FEMALE, Target Tissue: Type of Lesion: SKIN: PAPILLOMA, Dose [Carcinogen]: 200 NMOL IN 0.2 ML ACETONE ONCE, Promoter: 12-O-TETRADECANOYLPHORBOL-13-ACETATE, 16561-29-8) was 94%, 80%, 15%, not calculated; the “tumour outcome (control, treated, inhibition, significance)” value (Dose [Inhibitor]: 1.7 NMOL IN 0.2 ML ACETONE 2/WK 1 HR BEFORE EACH PROMOTER APPLICATION STARTING 14 D AFTER CARCINOGEN APPLICATION AND CON, Route [Inhibitor]: DERMAL, Species: MOUSE, Strain/Sex: CD-1/FEMALE, Target Tissue: Type of Lesion: SKIN: PAPILLOMA, Dose [Carcinogen]: 0.2 UMOL IN 0.2 ML ACETONE ONCE, Promoter: 12-O-TETRADECANOYLPHORBOL-13-ACETATE, 16561-29-8) is listed as 100%, 90%, 10%, not significant. For the same compound, the “tumour outcome (control, treated, inhibition, significance)” value reads like this: (Dose [Inhibitor]: 3, 30 UG IN DIET FOR DURATION OF STUDY (STUDY DURATION: 44 WK), Route [Inhibitor]: ORAL, Species: MOUSE, Strain/Sex: SENCAR/FEMALE, Target Tissue: Type of Lesion: SKIN: PAPILLOMA, Dose [Carcinogen]: 20 UG IN 0.2 ML ACETONE ONCE, Promoter: 12-O-TETRADECANOYLPHORBOL-13-ACETATE, 16561-29-8) 100%, 100%, 0%, not significant; (Dose [Inhibitor]: 3, 30 UG/G OF DIET FOR DURATION OF STUDY BEGINNING POST CARCINOGEN DOSE (STUDY DURATION: 40 WK), Route [Inhibitor]: ORAL, Species: MOUSE, Strain/Sex: SENCAR/FEMALE, Target Tissue: Type of Lesion: SKIN: CARCINOMA, Dose [Carcinogen]: 20 UG IN 0.2 ML ACETONE ONCE AT 7 WK OF AGE, Promoter: 12-O-TETRADECANOYLPHORBOL-13-ACETATE, 16561-29-8) 12/38 (32%), 3/30 (10%), 69%, p<0.05; (Dose [Inhibitor]: 3, 30 UG/G OF DIET FOR DURATION OF STUDY BEGINNING POST CARCINOGEN DOSE (STUDY DURATION: 40 WK), Route [Inhibitor]: ORAL, Species: MOUSE, Strain/Sex: SENCAR/FEMALE, Target Tissue: Type of Lesion: SKIN: CARCINOMA, Dose [Carcinogen]: 20 UG IN 0.2 ML ACETONE ONCE AT 7 WK OF AGE, Promoter: MEZEREIN, 34807-41-5) 12/39 (31%), 5/40 (13%), 58%, p<0.05.
